Patent publication US4046762A, “Esters and amides of 3-aryl-1,4 benzodioxan-2-carboxylic acids” (Instituto Luso Farmaco D'Italia S.r.l., priority 1972, dated 1977)
Where a name gives a salt, the structure may show the parent alone.

Columns and labels:
central nervous system [1] = test: Activity on central nervous system, mouse: Stereotipy (amphetamine); format: in vivo; details: orally, 180 mg/kg
[2] = Indicative acute toxicity, mouse (intraperitoneally); details: in vivo, ip, read-out: Indicative acute toxicity, DL50
Oedema from charragenin = test: Oedema from charragenin, rat; format: in vivo; details: i.p.
Arrhytmia CaCl2 = Arrhytmia CaCl2 - rat; format: in vivo; details: intravenously, 7.5 mg/kg
central nervous system [3] = test: Activity on central nervous system, mouse: Stereotipy (apomorphine); format: in vivo; details: orally, 40 mg/kg
sciatic nerve of rat = test: Local anaesthetic activity, sciatic nerve of rat
Antituxive activity = test: Antituxive activity; format: in vivo; details: for ED50: read-out: Antituxive activity, DE50
tail of mouse = test: Local anaesthetic activity, tail of mouse; format: in vivo
ileum of Guinea pig = test: Antihystaminic activity, ileum of Guinea pig; details: Cavia porcellus, 10 γ/ml
[4] = test system: Stretching from acetic acid; test: Stretching from acetic acid; format: in vivo; details: for ED50: read-out: Stretching from acetic acid, DE50
central nervous system [5] = test: Activity on central nervous system, mouse: depression of spontaneous motility; format: in vivo; details: orally
central nervous system [6] = test: Activity on central nervous system, mouse: Catalepsy (haloperidol); format: in vivo; details: orally, 15 mg/kg
central nervous system [7] = test: Activity on central nervous system, mouse: Potentiation of barbituric hypnosis; format: in vivo; details: orally, 15 mg/kg
Antipyresis = test: Antipyresis, rat; format: in vivo; details: 65 mg/kg

What does the source list for `O=C(C1Oc2ccccc2OC1c1ccccc1)N1CCOCC1` (stereo not drawn) [LR 519, n-(3-phenyl-1,4-benzodioxan-2-ylcarbonyl)-morpholine]?
Stereotipy (amphetamine), % (central nervous system [1]): 20%; LD50 [2]: 750 mg/kg; Oedema from charragenin, % (Oedema from charragenin; 180 mg/kg): 15%

For `CCN(CC)CCOC(=O)C1Oc2ccccc2OC1c1ccccc1` (stereo not drawn) [LR 520, n,n-diethylaminoethyl (3-phenyl-1,4-benzodioxan-2-yl)-carboxylate,citrate], which “Arrhytmia CaCl2” value (Arrhytmia CaCl2) is on record?
The value was 40.

What about the LD50 [2] of the same compound?
Its LD50 is 300 mg/kg.

What about the “Oedema from charragenin, %” value (Oedema from charragenin; 60 mg/kg) of the same compound?
The value was 9%.

Which LD50 [2] does the source give for `O=C(NO)C1Oc2ccccc2OC1c1ccccc1` (stereo not drawn) [LR 518, (3-phenyl-1,4-benzodioxan-2-yl)-carbohydroxamic acid] here?
The LD50 was 175 mg/kg.

What about the “Oedema from charragenin, %” value (Oedema from charragenin; 40 mg/kg) of the same compound?
The value was 12%.

What about the “Stereotipy (apomorphine), %” value (central nervous system [3]) of the same compound?
The value was 30%.

For `O=C(OCCOCCN1CCOCC1)C1Oc2ccccc2OC1c1ccccc1` (stereo not drawn) [LR 348, morpholinoethoxyethyl (3-phenyl-1,4-benzodioxan-2-yl)-carboxylate,hydrochloride], which “Local anaesthetic activity, sciatic nerve of rat, DE50” value (sciatic nerve of rat) is on record?
Its value is 12.2 mg/mL.

And the LD50 [2]?
Its LD50 is 250 mg/kg.

And the ED50 (Antituxive activity)?
The ED50 was 50 mg/kg.

What about the “Local anaesthetic activity, tail of mouse, DE50” value (tail of mouse) of the same compound?
The value was 2.70 mg/mL.

What about the inhibition at 10 µg/mL (ileum of Guinea pig) of the same compound?
The inhibition at 10 µg/mL was 60%.

What about the “Oedema from charragenin, %” value (Oedema from charragenin; 50 mg/kg) of the same compound?
The value was 40%.

What about the ED50 [4] of the same compound?
The ED50 was 15.6 mg/kg.

With `CC(C)NC(=O)C1Oc2ccccc2OC1c1ccccc1` (stereo not drawn) [LR 367, n-(3-phenyl-1,4-benzodioxan-2-ylcarbonyl)-isopropylamine] as the compound, how does the LD50 [2] read?
The LD50 was greater than 3000 mg/kg.

What about the ED50 (Antituxive activity) of the same compound?
Its ED50 is 86 mg/kg.

What about the “depression of spontaneous motility, %” value (central nervous system [5]; 150 mg/kg) of the same compound?
The value was 32%.

What about the “Oedema from charragenin, %” value (Oedema from charragenin; 200 mg/kg) of the same compound?
Its value is 30%.

And the ED50 [4]?
Its ED50 is 138 mg/kg.

Which “Catalepsy (haloperidol), %” value (central nervous system [6]) does the source give for `CCN(CC)CCNC(=O)C1Oc2ccccc2OC1c1ccccc1` (stereo not drawn) [LR 510, n-(n',n'-diethylaminoethyl)-(3-phenyl-1,4-benzodioxan-2-ylcarbonyl)-amine] here?
The value was 33%.

What about the “Potentiation of barbituric hypnosis, %” value (central nervous system [7]) of the same compound?
Its value is 20%.

What about the LD50 [2] of the same compound?
Its LD50 is 75 mg/kg.

Which results are given for `CCN(CC)CCOCCOC(=O)C1Oc2ccccc2OC1c1ccccc1` (stereo not drawn) [LR 349, n,n-diethylaminoethoxyethyl (3-phenyl-1,4-benzodioxan-2-yl)-carboxylate, citrate]?
Local anaesthetic activity, sciatic nerve of rat, DE50 (sciatic nerve of rat): 11.2 mg/mL; LD50 [2]: 200 mg/kg; ED50 (Antituxive activity): 39.5 mg/kg; Local anaesthetic activity, tail of mouse, DE50 (tail of mouse): 2.85 mg/mL; Oedema from charragenin, % (Oedema from charragenin; 50 mg/kg): 50%; Stretching from acetic acid, % ([4]; 10 mg/kg): 20%

For `O=C(C1Oc2ccccc2OC1c1ccccc1)N1CCN(c2ccccc2)CC1` (stereo not drawn) [LR 394, n'-phenyl-N-(3-phenyl-1,4-benzodioxan-2-ylcarbonyl)-piperazine.H2 0], which “Antipyresis, %” value (Antipyresis) is on record?
The value was 100%.

What about the LD50 [2] of the same compound?
The LD50 was 330 mg/kg.

And the “Antituxive activity, %” value (Antituxive activity; 10 mg/kg)?
The value was 64%.

And the ED50 (central nervous system [5]; po, read-out: depression of spontaneous motility, DE50)?
The ED50 was 33.5 mg/kg.

And the “Oedema from charragenin, %” value (Oedema from charragenin; 42 mg/kg)?
The value was 50%.

And the ED50 [4]?
The ED50 was 22 mg/kg.
